From patent US20110092367A1, “Herbicidal Compositions Comprising 4-amino-3,6-dichloropyridine-2-carboxylic Acid” (BASF SE, priority 2008, published 2011)

Assays:
Type in all cases: in vivo
Papaver rhoeas = test: Field trial Example 1, successive application: damage on PAPRH
Source text: (§1) Aminiopyralid was used as commercial aquaeous solution having an active ingredient concentration of 240 g/l (Milestone™). Metazachlor was used as a commercial suspension concentrate having an active ingredient concentration of 500 g/l (Butisan S®).
(§2) The performance of aminopyralid applied as an alone treatment at 15, 30 and 50 g a.i./ha applied as an early post emergence treatment and an post emergence treatment in comparison to two different applications including metazachlor at 500 g a.i./ha as an early post emergence application in succession of aminopyralid as a post emergence application at 15 and 30 g a.i./ha was assessed in an oilseed rape field trials.
(§3) The early post emergence treatment was applied by means of fine distributed nozzles at the growth stage (GS) of the crop BBCH 11-12.
(§4) The post emergence treatment was applied by means of fine distributed nozzles at the growth stage (GS) of the crop BBCH 13-14.
(§5) The test period extended over the autumn and spring season (205 days).
(§6) In the following experiments, the herbicidal activity for the individual herbicide compounds (solo application) and of the herbicidal succession was assessed 4 times:
(§7) The evaluation for the damage on undesired weeds caused by the chemical compositions was carried out using a scale from 0 to 100%, compared to the untreated control plants. Here, 0 means no damage and 100 means complete destruction of the plants.

Mercurialis annua = test: Greenhouse trial, post-emergence: MERAN; settings: for % activity 28 DAT: MERAN
Description: (§8) The test plants have been seeded, separately for each species, in plastic containers in sandy loamy soil containing 5% organic matter.
(§9) For the post emergence treatment, the plants were first grown to the 2 leaf station (GS 12). Here, the herbicidal compositions were suspended or emulsified in water as distribution medium and sprayed using finely distributing nozzels.
(§10) The plants have been cultivated due to there individual requirements at 10-25° C. and 20-35° C. The plants were irrigated due to there necessity. […]
as §7
(§11) Calculation of expected activity of binary mixtures was done by using the Colby-Formula according to Example 1.

Capsella bursa-pasturis = test: Greenhouse trial, post-emergence: CAPBP; settings: aminopyralid 10 g ai/ha solo, post-emergence (Table 10)
Description: as §8, §9, §10, §7, §11

Centauria cyanus = test: Greenhouse trial, post-emergence: CENCY; settings: for % activity 28 DAT: CENCY, post-emergence (Tables 7-9)
Description: as §8, §9, §10, §7, §11

Centaurea cyanus = test: Field trial Example 2, combined application: CENCY; settings: Aminopyralid 7.5 g ai/ha solo, 78 DAT
Description: as §1, §7
The value E, which is to be expected if the activity of the individual compounds is just additive, was calculated using the method of S. R. Colby (1967) “Calculating synergistic and antagonistic responses of herbicide combinations”, Weeds 15, p. 22 ff.
The performance of aminopyralid, applied as an alone treatment at […] and 15 g ai/ha, and the performance of metazachlor, applied as an alone treatment at 375 and 500 g ai/ha, as well as the mixtures of the both compounds have been assessed in winter oilseed rape field trials. The trials have been conducted in Germany at two locations.
Post emergence treatment was applied by means of fine distributed nozzels at the growth stage (GS/BBCH 11/12).

Apera spica-venti = test: Field trial Example 1, successive application: damage on APESV
Source text: as §1, §2, §3, §4, §5, §6, §7

Veronica persica = test: Field trial Example 1, successive application: damage on VERPE
Source text: as §1, §2, §3, §4, §5, §6, §7

[1] = 15 g ai/ha, treatment A early post emergence, DAT 25/DALT 10
[2] = 15 g ai/ha, treatment A early post emergence, DAT 65/DALT 50
[3] = 15 g ai/ha, treatment A early post emergence, DAT 176/DALT 161
[4] = 15 g ai/ha, treatment B post emergence, DAT 25/DALT 10
[5] = 15 g ai/ha, treatment B post emergence, DAT 65/DALT 50
[6] = 15 g ai/ha, treatment B post emergence, DAT 176/DALT 161
[7] = 30 g ai/ha, treatment A early post emergence, DAT 25/DALT 10
[8] = 30 g ai/ha, treatment A early post emergence, DAT 65/DALT 50
[9] = 30 g ai/ha, treatment A early post emergence, DAT 176/DALT 161
[10] = 30 g ai/ha, treatment B post emergence, DAT 25/DALT 10
[11] = 30 g ai/ha, treatment B post emergence, DAT 65/DALT 50
[12] = 30 g ai/ha, treatment B post emergence, DAT 176/DALT 161
[13] = 50 g ai/ha, treatment A early post emergence, DAT 25/DALT 10
[14] = 50 g ai/ha, treatment A early post emergence, DAT 65/DALT 50
[15] = 50 g ai/ha, treatment A early post emergence, DAT 176/DALT 161
[16] = 50 g ai/ha, treatment B post emergence, DAT 25/DALT 10
[17] = 50 g ai/ha, treatment B post emergence, DAT 65/DALT 50
[18] = 50 g ai/ha, treatment B post emergence, DAT 176/DALT 161
[19] = aminopyralid 15 g ai/ha, treatment A, DAT 205/DALT 190
[20] = aminopyralid 15 g ai/ha, treatment B, DAT 205/DALT 190
[21] = aminopyralid 30 g ai/ha, treatment A, DAT 205/DALT 190
[22] = aminopyralid 30 g ai/ha, treatment B, DAT 205/DALT 190
[23] = aminopyralid 50 g ai/ha, treatment A, DAT 205/DALT 190
[24] = aminopyralid 50 g ai/ha, treatment B, DAT 205/DALT 190
[25] = post-emergence, 672 h, read-out: % activity 28 DAT, CENCY

Nc1cc(Cl)nc(C(=O)O)c1Cl [aminopyralid, 4-amino-3,6-dichloropyridine-2-carboxylic acid]
damage on PAPRH (Papaver rhoeas; [1]): 93% | damage on PAPRH (Papaver rhoeas; [2]): 93% | damage on PAPRH (Papaver rhoeas; [3]): 96% | damage on PAPRH (Papaver rhoeas; [4]): 72% | damage on PAPRH (Papaver rhoeas; [5]): 75% | damage on PAPRH (Papaver rhoeas; [6]): 96% | damage on PAPRH (Papaver rhoeas; [7]): 98% | damage on PAPRH (Papaver rhoeas; [8]): 95% | damage on PAPRH (Papaver rhoeas; [9]): 99% | damage on PAPRH (Papaver rhoeas; [10]): 72% | damage on PAPRH (Papaver rhoeas; [11]): 80% | damage on PAPRH (Papaver rhoeas; [12]): 96% | damage on PAPRH (Papaver rhoeas; [13]): 100% | damage on PAPRH (Papaver rhoeas; [14]): 100% | damage on PAPRH (Papaver rhoeas; [15]): 100% | damage on PAPRH (Papaver rhoeas; [16]): 80% | damage on PAPRH (Papaver rhoeas; [17]): 85% | damage on PAPRH (Papaver rhoeas; [18]): 97% | damage on PAPRH (Papaver rhoeas; [19]): 97% | damage on PAPRH (Papaver rhoeas; [20]): 97% | damage on PAPRH (Papaver rhoeas; [21]): 98% | damage on PAPRH (Papaver rhoeas; [22]): 100% | damage on PAPRH (Papaver rhoeas; [23]): 100% | damage on PAPRH (Papaver rhoeas; [24]): 98% | % activity 28 DAT (Mercurialis annua; aminopyralid 5 g ai/ha solo, post-emergence (Table 10)): 70% | % activity 28 DAT (Mercurialis annua; aminopyralid 5 g ai/ha solo, post-emergence (Tables 7-9)): 40% | % activity 28 DAT (Mercurialis annua; aminopyralid 10 g ai/ha solo, post-emergence (Table 10)): 90% | % activity 28 DAT (Mercurialis annua; aminopyralid 10 g ai/ha solo, post-emergence (Tables 7-9)): 75% | inhibition at 10 g/ha (Mercurialis annua; Mercurialis annua, post-emergence, 672 h, read-out: % activity 28 DAT, MERAN): 90% | % activity 28 DAT (Capsella bursa-pasturis): 25% | % activity 28 DAT (Centauria cyanus; aminopyralid 5 g ai/ha solo): 60% | % activity 28 DAT (Centauria cyanus; aminopyralid 10 g ai/ha solo): 65% | inhibition at 5 g/ha (Centauria cyanus; [25]): 70% | inhibition at 10 g/ha (Centauria cyanus; [25]): 85% | % activity (Centaurea cyanus): 98% | damage on APESV (Apera spica-venti; [2]): 28% | damage on APESV (Apera spica-venti; [3]): 28% | damage on APESV (Apera spica-venti; [5]): 32% | damage on APESV (Apera spica-venti; [6]): 32% | damage on APESV (Apera spica-venti; [8]): 47% | damage on APESV (Apera spica-venti; [9]): 47% | damage on APESV (Apera spica-venti; [11]): 38% | damage on APESV (Apera spica-venti; [12]): 38% | damage on APESV (Apera spica-venti; [14]): 85% | damage on APESV (Apera spica-venti; [15]): 85% | damage on APESV (Apera spica-venti; [17]): 55% | damage on APESV (Apera spica-venti; [18]): 55% | damage on APESV (Apera spica-venti; [19]): 28% | damage on APESV (Apera spica-venti; [20]): 45% | damage on APESV (Apera spica-venti; [21]): 47% | damage on APESV (Apera spica-venti; [22]): 38% | damage on APESV (Apera spica-venti; [23]): 85% | damage on APESV (Apera spica-venti; [24]): 55% | damage on VERPE (Veronica persica; [1]): 0% | damage on VERPE (Veronica persica; [2]): 0% | damage on VERPE (Veronica persica; [3]): 0% | damage on VERPE (Veronica persica; [4]): 0% | damage on VERPE (Veronica persica; [5]): 0% | damage on VERPE (Veronica persica; [6]): 12% | damage on VERPE (Veronica persica; [7]): 23% | damage on VERPE (Veronica persica; [8]): 13% | damage on VERPE (Veronica persica; [9]): 12% | damage on VERPE (Veronica persica; [10]): 0% | damage on VERPE (Veronica persica; [11]): 0% | damage on VERPE (Veronica persica; [12]): 10% | damage on VERPE (Veronica persica; [13]): 73% | damage on VERPE (Veronica persica; [14]): 50% | damage on VERPE (Veronica persica; [15]): 50% | damage on VERPE (Veronica persica; [16]): 13% | damage on VERPE (Veronica persica; [17]): 20% | damage on VERPE (Veronica persica; [18]): 30% | damage on VERPE (Veronica persica; [19]): 0% | damage on VERPE (Veronica persica; [20]): 18% | damage on VERPE (Veronica persica; [21]): 12% | damage on VERPE (Veronica persica; [22]): 12% | damage on VERPE (Veronica persica; [23]): 48% | damage on VERPE (Veronica persica; [24]): 33%
